Test results reported in patent publication US20070148184A1, “Survivin-derived peptides and use thereof” (priority 2003, published 2007).
Where “and” joins values, the source holds several entries; their conditions need not be identical. Equal entries are not always repeated. Entries after “also recorded” stand apart in the source; their conditions may differ. Where two headings read alike, the source gives them in different places. Residues, ends and D or L forms follow the SMILES beside them. No end group written: not given here.

Experiments:
HLA-A3 = HLA-A3 (Homo sapiens, UniProt P04439); experiment: Assembly assay, HLA-A3; type: binding; conditions: for EC50: Table 4, HLA-A3, read-out: C50
Description: (§1) The binding affinity of synthetic peptides (Invitrogen, Carlsbad, Calif., USA) to HLA-A1, -A2, A3, or -A11 molecules metabolically labeled with [^35S]-methionine was measured in the assembly assay, as described previously (12). The assay is based on peptide-mediated stabilization of empty HLA molecules released upon cell lysis, from the TAP-deficient cell lines. Stably folded HLA-molecules were immune-precipitated using the HLA class I-specific, conformation-dependent mAb W6/32, and separated by isoelectric focusing (IEF) gel electrophoresis. MHC heavy chain bands were quantified using the ImageGauge Phosphorimager program (FUJI photo film Co., Carrollton, Tex., USA). The intensity of the band is proportional to the amount of peptide-bound class I MHC complex recovered during the assay. Subsequently, the extent of stabilization of the HLA-molecule is directly related to the binding affinity of the added peptide. The peptide concentration used to analyze the recovery of the HLA-molecules was 40, 4, 0.4, 0.04 μM for HLA-A1 and HLA-A11, and 100, 10, 1, 0.1, 0.01 μM for HLA-A2 and HLA-A3. The C50 value was subsequently calculated for each peptide as the peptide concentration sufficient for half maximal stabilization.

HLA-A2 = biological target: T1, HLA-A2 (Homo sapiens, UniProt P04439, D140Y/D185E/D98H/E176V/E277Q/G131W/G231S/I119V/I121R/I166T/I218V/L300P/L318F/N151K/N90K/P208A/P217A/Q86G/Q94H/R138H/R169H/T345S); experiment: Assembly assay for peptide binding to class I MHC, HLA-A2
T1 construct: stabilization of the class I molecules after loading of peptide to the peptide transporter deficient cell line T2; endogenous in cells; host or cells: T2 (TAP-deficient human hybrid cell line), metabolically labelled lysate
Description: This assembly assay is carried out as described previously (12,13), and it is based on stabilisation of the HLA molecule after loading of peptide to the peptide transporter deficient cell line T2. Subsequently, correctly folded stable HLA heavy chains are immunoprecipitated using conformation dependent antibodies and the peptide binding is quantitated.
Assembly assays for binding of the synthetic peptides to class I MHC molecules metabolically labeled with [35S]-methionine were carried out as described (12,13). The assembly assay is based on stabilization of the class I molecules after loading of peptide to the peptide transporter deficient cell line T2. Subsequently, correctly folded stable MHC heavy chains are immunoprecipitated using conformation-dependent antibodies. After IEF electrophoresis, gels were exposed to phosphoImager screens, and peptide binding was quantified using the Imagequant PhosphorImager program (Molecular Dynamics, Sunnyvale, Calif.).
as §1, with “Stably folded HLA-molecules were immune-precipitated using the HLA class I-specific, conformation-dependent mAb W6/32, and separated by isoelectric focusing (IEF) gel electrophoresis.” left out

[1] = tested on: peptide epitope-specific interferon-γ releasing effector cells; experiment: IFN-γ ELISPOT, Example 4 (PBL or TIL from cancer patients); type: cell-based, human
Description: To extend the sensitivity of the ELISPOT assay, PBL were stimulated once in vitro prior to analysis. At day 0, PBL or crushed lymph nodes were thawed and plated as 2×10^6 cells in 2 ml/well in 24-well plates (Nunc, Roskilde, Denmark) in x-vivo medium (Bio Whittaker, Walkersville, Md.), […] heat-inactivated human serum, and 2 mM of L-glutamine in the presence of 10 μM of peptide. Two days later 20 IU/ml recombinant interleukin-2 (IL-2) (Chiron, Ratingen, Germany) was added to the cultures. The cultured cells were tested for reactivity in the ELISPOT on day 10.
The ELISPOT assay was used to quantify peptide epitope-specific interferon-γ releasing effector cells as previously described (16). Briefly, nitrocellulose bottomed 96-well plates (MultiScreen MAIP N45, Millipore, Hedehusene, Denmark) were coated with anti-IFN-γ antibody (1-D1K, Mabtech, Nacka, Sweden). The wells were washed, blocked by X-vivo medium, and the cells were added in duplicates at different cell concentrations. The peptides were then added to each well and the plates were incubated overnight. The following day, media was discarded and the wells were washed prior to addition of biotinylated secondary antibody (7-B6-1-Biotin, Mabtech). The plates were incubated for 2 hours, washed, and avidin-alkaline phosphatase conjugate (Calbiochem, Life Technologies, Inc. San Diego, Calif., USA) was added to each well. The plates were incubated at room temperature for one hour, washed, and the enzyme substrate NBT/BCIP (DakoCytomation Norden A/S, Glostrup, Denmark) was added to each well and incubated at RT for 5-10 min. Upon the emergence of dark purple spots, the reaction was terminated by washing with tap-water. The spots were counted using the ImmunoSpot® Series 2.0 Analyzer (CTL Analyzers, LLC, Cleveland, US) and the peptide specific CTL frequency could be calculated from the numbers of spot-forming cells. All assays were performed in duplicates for each peptide antigen.

[2] = Example 1, Table 1, read-out: C50 (peptide concentration for half maximal binding to HLA-A2)
[3] = Table 4, HLA-A2, 11-mers and controls, read-out: C50

Molecule: CC[C@H](C)[C@H](N)C(=O)N[C@@H](CC(C)C)C(=O)N[C@@H](CCCNC(=N)N)C(=O)NCC(=O)N[C@@H](CO)C(=O)N[C@H](C(=O)N[C@@H](C)C(=O)N[C@@H](Cc1c[nH]cn1)C(=O)N[C@@H](CCCCN)C(=O)O)C(C)C [C3, reference compound]
- EC50 (HLA-A3): 0.1 to 0.3 µM and 0.1 µM

Molecule: CC(C)C[C@H](NC(=O)[C@H](CCCCN)NC(=O)[C@H](CC(C)C)NC(=O)[C@H](Cc1ccccc1)NC(=O)[C@H](CCC(=O)O)NC(=O)CNC(=O)[C@H](CC(C)C)NC(=O)[C@@H](NC(=O)[C@@H](N)CC(C)C)[C@@H](C)O)C(=O)O [Sur1]
- EC50 (HLA-A2; [2]): > 100 µM
- EC50 (HLA-A2; Example 4, read-out: C50 (half maximal recovery of HLA-A2)): > 100 µM

Molecule: CC[C@H](C)[C@H](NC(=O)[C@H](C)NC(=O)[C@H](CCCNC(=N)N)NC(=O)[C@H](CCCNC(=N)N)NC(=O)[C@@H](NC(=O)[C@@H](N)CCCCN)C(C)C)C(=O)N[C@@H](CCC(=O)O)C(=O)N[C@@H](CCC(N)=O)C(=O)N[C@@H](CC(C)C)C(=O)O [Sur3]
- EC50 (HLA-A2; [2]): > 100 µM

Molecule: CC(C)C[C@H](NC(=O)[C@@H](N)[C@@H](C)O)C(=O)N1CCC[C@H]1C(=O)N1CCC[C@H]1C(=O)N[C@@H](C)C(=O)N[C@@H](Cc1c[nH]c2ccccc12)C(=O)N[C@@H](CCC(N)=O)C(=O)N1CCC[C@H]1C(=O)N[C@@H](CCCCN)C(=O)O [Sur5K9]
- binding to HLA-A3, in words (HLA-A3): high affinity
- EC50 (HLA-A3): 2 µM
- ELISPOT response ([1]; HLA-A3, nine samples from melanoma patients (five PBL and four TIL)): No responses were detected

Molecule: CC(C)C[C@H](NC(=O)[C@H](CCCCN)NC(=O)[C@H](CC(C)C)NC(=O)[C@@H](N)Cc1ccccc1)C(=O)N[C@@H](CC(=O)O)C(=O)N[C@@H](CCCNC(=N)N)C(=O)N[C@@H](CCC(=O)O)C(=O)N[C@@H](CCCNC(=N)N)C(=O)N[C@@H](C)C(=O)O [Sur6]
- EC50 (HLA-A2; [2]): 30 µM

Molecule: CC(C)C[C@H](NC(=O)[C@H](Cc1ccccc1)NC(=O)[C@@H]1CCCN1C(=O)[C@H](CCC(N)=O)NC(=O)[C@H](Cc1c[nH]c2ccccc12)NC(=O)[C@H](C)NC(=O)[C@@H]1CCCN1C(=O)[C@@H]1CCCN1C(=O)[C@H](CC(C)C)NC(=O)[C@@H](N)[C@@H](C)O)C(=O)O [Sur8]
- EC50 (HLA-A2; [2]): 30 µM

Molecule: CC(C)C[C@H](NC(=O)[C@H](CCCCN)NC(=O)[C@H](CC(C)C)NC(=O)[C@H](Cc1ccccc1)NC(=O)[C@H](CCC(=O)O)NC(=O)CNC(=O)[C@H](CC(C)C)NC(=O)[C@@H](NC(=O)[C@H](CC(C)C)NC(=O)[C@@H](N)CCC(=O)O)[C@@H](C)O)C(=O)O [Sur9]
- EC50 (HLA-A2; [2]): 10 µM

Molecule: CC(C)C[C@H](NC(=O)[C@@H](N)CC(=O)O)C(=O)N[C@@H](C)C(=O)N[C@@H](CCC(N)=O)C(=O)N[C@@H](CS)C(=O)N[C@@H](Cc1ccccc1)C(=O)N[C@@H](Cc1ccccc1)C(=O)N[C@@H](CS)C(=O)N[C@@H](CCCCN)C(=O)O [Sur53K9] (H-DLAQCFFCK-OH; N-terminus and C-terminus assumed)
- binding to HLA-A3, in words (HLA-A3): no detectable effect

Molecule: CC(C)C[C@H](NC(=O)[C@H](CCC(=O)O)NC(=O)[C@H](CCCCN)NC(=O)[C@H](Cc1ccccc1)NC(=O)[C@H](CS)NC(=O)[C@H](Cc1ccccc1)NC(=O)[C@H](Cc1ccccc1)NC(=O)[C@H](CS)NC(=O)[C@H](CCC(N)=O)NC(=O)[C@H](C)NC(=O)[C@@H](N)CC(C)C)C(=O)O [Sur54-64] (H-LAQCFFCFKEL-OH; N-terminus and C-terminus assumed)
- C50 (half maximal recovery of HLA-A2) (HLA-A2; Example 4): did not bind

Molecule: CC(C)C[C@H](NC(=O)[C@H](CCC(=O)O)NC(=O)[C@H](CCC(=O)O)NC(=O)[C@H](Cc1ccccc1)NC(=O)[C@H](CCC(N)=O)NC(=O)[C@H](CCCCN)NC(=O)[C@H](CCCCN)NC(=O)[C@@H](NC(=O)[C@H](CO)NC(=O)[C@H](CC(C)C)NC(=O)[C@@H](N)Cc1ccccc1)C(C)C)C(=O)O [Sur86-96]
- patients with CTL response in PBL ([1]; HLA-A2, ten cancer patients analyzed): no responses could be detected

Molecule: CC[C@H](C)[C@H](N)C(=O)N[C@@H](CC(C)C)C(=O)N[C@@H](CCCCN)C(=O)N[C@@H](CCC(=O)O)C(=O)N[C@H](C(=O)N[C@@H](CC(N)=O)C(=O)N[C@@H](CC(N)=O)C(=O)N[C@@H](CCCCN)C(=O)N[C@@H](CCCCN)C(=O)N[C@@H](CCCCN)C(=O)O)[C@@H](C)O [Sur113L2]
- binding to HLA-A3, in words (HLA-A3): only bound weakly
- EC50 (HLA-A3): > 100 µM

Molecule: CC[C@H](C)[C@H](NC(=O)[C@@H](N)[C@@H](C)O)C(=O)N[C@@H](CCCNC(=N)N)C(=O)N[C@@H](CCCNC(=N)N)C(=O)N[C@@H](CCCCN)C(=O)N[C@@H](CC(N)=O)C(=O)N[C@@H](CC(C)C)C(=O)N[C@@H](CCCNC(=N)N)C(=O)N[C@@H](CCCCN)C(=O)O [SurEx3-A3-1]
- EC50 (HLA-A3): 0.5 µM

Molecule: CAFLSVKKQF [Sur 84-93]
- EC50 (HLA-A3): > 100 µM

Molecule: ETAKKVRRAI [Sur10]
- C50 (peptide concentration for half maximal binding to HLA-A2) (HLA-A2; Example 1, Table 1): did not bind; also recorded: Not binding

Molecule: FLKDHRISTF [Sur 13-22]
- EC50 (HLA-A3): > 100 µM

Molecule: FLKDHRISTK [Sur13K9]
- binding to HLA-A3, in words (HLA-A3): no detectable effect
- EC50 (HLA-A3): > 100 µM

Molecule: FLKLDRERAK [Sur 101-110]
- EC50 (HLA-A3): > 100 µM

Molecule: IAKETNNKKK [Sur 113-122]
- EC50 (HLA-A3): > 100 µM

Molecule: KLDRERAKNK [Sur 103-112]
- EC50 (HLA-A3): > 100 µM

Molecule: KLDRERAKNKI [Sur103-113]
- C50 (half maximal recovery of HLA-A2) (HLA-A2; Example 4): did not bind
- EC50 (HLA-A2; [3]): > 100 µM

Molecule: PTENEPDLAQ [Sur47-56]
- ELISPOT response ([1]; HLA-A1, ten melanoma patients, data not shown): no peptide-specific responses were detected

Molecule: PTIRRKNLRK [SurEx3-A3-2]
- EC50 (HLA-A3): > 100 µM

Molecule: PTLPPAWQPFL [Sur4-14]
- C50 (half maximal recovery of HLA-A2) (HLA-A2; Example 4): did not bind
- EC50 (HLA-A2; [3]): > 100 µM

Molecule: RAIEQLAAM [Sur2]
- C50 (peptide concentration for half maximal binding to HLA-A2) (HLA-A2; Example 1, Table 1): did not bind; also recorded: Not binding

Molecule: RISTFKNWPF [Sur 18-27]
- EC50 (HLA-A3): > 100 µM

Molecule: RITREEHKK [Sur2b-A3-1]
- EC50 (HLA-A3): > 100 µM

Molecule: STFKNWPFL [Sur4]
- C50 (peptide concentration for half maximal binding to HLA-A2) (HLA-A2; Example 1, Table 1): did not bind; also recorded: Not binding

Molecule: SVKKQFEEL [Sur5]
- C50 (peptide concentration for half maximal binding to HLA-A2) (HLA-A2; Example 1, Table 1): did not bind; also recorded: Not binding

Molecule: SVKKQFEELTL [Sur88-98]
- C50 (half maximal recovery of HLA-A2) (HLA-A2; Example 4): did not bind
- EC50 (HLA-A2; [3]): > 100 µM

Molecule: TAKKVRRAI [Sur7]
- C50 (peptide concentration for half maximal binding to HLA-A2) (HLA-A2; Example 1, Table 1): did not bind; also recorded: Not binding

Molecule: TLPPAWQPF [Sur 5-13]
- EC50 (HLA-A3): > 100 µM
